Like-named read-outs stand apart in the source and are kept apart here.

The format of data set [1] is in vivo, rat. To be noted: for concentration of each enantiomer in rat liver: mixture of diastereoisomers, about 13 mg/kg per os on D0, from D+3, FIG. 3. As to the method: Separation of the configurational stereoisomers of bromadiolone is performed by high-pressure liquid chromatography (HPLC) on a LUX® Cellulose-1 chiral column (Phenomenex, Le Pecq, France) containing a chiral stationary phase constituted of particles of cellulose tris(3,5-dimethylphenyl carbamate), said particles having a mean size of 3 μm and having a mean pore size of 1000 Å. A mixture formed from acetonitrile (A) and water comprising 0.1% by volume of formic acid (B), with an A/B volume ratio of 80/20 and with a flow rate of 0.25 mL/minute in the chromatography column, is used as mobile phase. The concentration of the composition to be analysed is 1 μg of bromadiolone per millilitre of acetonitrile and the volume injected onto the column is 1 μL. Detection is performed by tandem mass spectrometry (MS/MS) in negative electrospray ionization (ESI) mode. The temperature of the nebulizer gas is 350° C. and its flow rate is 8 L/minute. The pressure of the nebulizer gas is brought to 2700 hPa. In particular, the MRM (“Multiple Reaction Monitoring”) transitions m/z 525.1→250.1 and m/z 525.1→181, corresponding to the bromadiolone signal, are detected.
About 0.525 g (±0.025 g) of rat liver is weighed out accurately and placed in a 50 mL polypropylene tube. 10 mL of acetone are added and the suspension is homogenized using an Ultra-Turrax® homogenizer/disperser for a time of about 30 seconds. The homogenizer/disperser shaft is rinsed with hot water and then twice with 20 mL of acetone in a polypropylene tube. The homogenate is centrifuged for 5 minutes at a centrifugation speed of 3000 rpm (revolutions per minute). The supernatant is collected and transferred into a test tube. The sample is subjected to evaporation under a stream of nitrogen (N2) at a temperature of 40° C. so as to form a dry extract.
1 mL of acetonitrile is added to the tube containing the dry extract so as to dissolve it. The acetonitrile solution is washed twice successively with 1 mL of hexane. The lipid-free extract is dried under a stream of nitrogen (N2) at a temperature of 40° C. and is then taken up in 0.5 mL of methanol and dissolved by vortex stirring. 0.5 mL of ultra-pure (Milli-Q) water is then added. The sample is vortex-homogenized.
1 mL of dichloromethane (CH2Cl2), then 1 mL of methanol (CH3OH), then 1 mL of ultra-pure (Milli-Q) water are passed through an Oasis HLB 1 cc cartridge (WAT094225, Waters). The lipid-free liver extract (1 mL MeOH/Milli-Q H2O) containing bromadiolone is then loaded onto the top of the preconditioned cartridge. The liver extract penetrates through the cartridge by gravity on contact with the solid phase of the cartridge. 1 mL of washing solution formed from methanol (CH3OH) and ultra-pure water (H2O) in a 90/10 volume proportion is loaded onto the top of the cartridge. The cartridge is dried by suction under vacuum connected to the bottom of the cartridge. 1 mL of eluting solution formed from dichloromethane (CH2Cl2) and methanol (CH3OH) in a 90/10 volume proportion is then loaded onto the top of the cartridge and an eluate comprising bromadiolone is collected at the bottom of the cartridge. The solvent of the eluate is evaporated off under a stream of nitrogen (N2) at a temperature of 40° C. The sample is taken up in 0.5 mL of acetonitrile and the acetonitrile solution containing bromadiolone is filtered through a 0.2 μm filter. […]

Data set [2] has as its system male laboratory rats (OFA, Sprague-Dawley 200 g). Put plainly: Anticoagulant power of each configurational stereoisomer of bromadiolone (coagulation time, Quick time, of plasma of tube-fed rats). The following applies: for anticoagulant effect (coagulation time, Quick time): 1.5 mg of enantiomer per kg rat by tube feeding on D0, up to D3, FIG. 4. The format is in vivo, rat. As to the method:
The following are administered to male laboratory rats (OFA, Sprague-Dawley 200 g) by tube feeding on D0: a composition comprising enantiomer E1 of said diastereoisomer D12 in a proportion of 1.5 mg of said enantiomer E1 per kilogram of rat; or a composition comprising enantiomer E2 of said diastereoisomer D1,2 in a proportion of 1.5 mg of said enantiomer E2 per kilogram of rat; or a composition comprising enantiomer E3 of said diastereoisomer D3,4 in a proportion of 1.5 mg of said enantiomer E3 per kilogram of rat; or a composition comprising enantiomer E4 of said diastereoisomer D3,4 in a proportion of 1.5 mg of said enantiomer E4 per kilogram of rat.
The rats receive vitamin K1 daily in a proportion of 0.1 unit of vitamin per 200 g of rat so as to keep them alive for 7 days or 14 days. However, the administration of vitamin K1 is stopped 48 hours before the rats are euthanized so as to allow evaluation of the Quick time without interference with the supplementation by tube feeding.
On these rats, blood is collected on D1, D3, D7 and D14 and measurement of the coagulation time (Quick time, expressed in seconds) of the plasma is performed using the “Neoplastine CI Determination of Prothrombin Time” kit (Diagnostica Stago, Asnière, France) by measurement on a Thrombotimer Option 2 Plus machine (Behnk Electronik, Norderstedt, Germany).

Where [3] appears, read: summary statement of the inventors.

As for `O=c1oc2ccccc2c(O)c1C(CC(O)c1ccc(-c2ccc(Br)cc2)cc1)c1ccccc1` (single isomer, unassigned) [enantiomer E1, 3-[3-(4′-bromo[1,1′-biphenyl]-4-yl)-3-hydroxy-1-phenylpropyl]-4-hydroxy-2H-1-benzopyran-2-one], the “concentration of each enantiomer in rat liver” value (from here on “concentration”) in data set [1] (listed as E1) is reported as “remains in the rat liver”.
In the case of `O=c1oc2ccccc2c(O)c1C(CC(O)c1ccc(-c2ccc(Br)cc2)cc1)c1ccccc1` (single isomer, unassigned) [enantiomer E2, 3-[3-(4′-bromo[1,1′-biphenyl]-4-yl)-3-hydroxy-1-phenylpropyl]-4-hydroxy-2H-1-benzopyran-2-one], in data set [1] (listed as E2), the “concentration” value is reported as “only enantiomer E1 remains in the rat liver”.
Regarding `O=c1oc2ccccc2c(O)c1C(CC(O)c1ccc(-c2ccc(Br)cc2)cc1)c1ccccc1` (single isomer, unassigned) [enantiomer E3, 3-[3-(4′-bromo[1,1′-biphenyl]-4-yl)-3-hydroxy-1-phenylpropyl]-4-hydroxy-2H-1-benzopyran-2-one], in data set [1] (listed as E3), the “concentration” value is given as “only enantiomer E1 remains in the rat liver”. Also, the “anticoagulant effect (coagulation time, Quick time)” value in data set [2] (listed as E3) was “contrary to the ingestion of 1.5 mg of said enantiomer E3”.
As for `O=c1oc2ccccc2c(O)c1C(CC(O)c1ccc(-c2ccc(Br)cc2)cc1)c1ccccc1` (single isomer, unassigned) [enantiomer E4, 3-[3-(4′-bromo[1,1′-biphenyl]-4-yl)-3-hydroxy-1-phenylpropyl]-4-hydroxy-2H-1-benzopyran-2-one], the “concentration” value in data set [1] (listed as E4) was “only enantiomer E1 remains in the rat liver”. For the same compound, the “persistence in the liver of target rodent pests” value in data set [1] (setting [3]) is recorded as “sufficient to be rodenticidal”. Besides, the “anticoagulant effect (coagulation time, Quick time)” value in data set [2] (listed as E4) is reported as “sufficient to maintain an anticoagulant effect at least up to D3”. Besides, the “anticoagulant activity compared with enantiomer E3” value in data set [2] (setting [3]) is given as “higher anticoagulant activity than the anticoagulant activity of said enantiomer E3”.

Source of the values: patent US20180360037A1, “STEREOISOMER OF BROMADIOLONE, COMPOSITION AND RODENTICIDE BAIT COMPRISING SAME, AND METHOD FOR CONTROLLING TARGET RODENT PESTS” (priority 2015, published 2018).
